{"source": "paper PMC7753999", "about": "“Molecular docking‐assisted screening reveals tannic acid as a natural protein disulphide isomerase inhibitor with antiplatelet and antithrombotic activities” (Journal of Cellular and Molecular Medicine, 2020)", "key": {"[1]": {"biological_target": "T1, Protein disulphide isomerase (PDI) (Homo sapiens, UniProt P07237)", "T1 construct": "gene P4HB", "T1 sequence (P07237 18-508)": "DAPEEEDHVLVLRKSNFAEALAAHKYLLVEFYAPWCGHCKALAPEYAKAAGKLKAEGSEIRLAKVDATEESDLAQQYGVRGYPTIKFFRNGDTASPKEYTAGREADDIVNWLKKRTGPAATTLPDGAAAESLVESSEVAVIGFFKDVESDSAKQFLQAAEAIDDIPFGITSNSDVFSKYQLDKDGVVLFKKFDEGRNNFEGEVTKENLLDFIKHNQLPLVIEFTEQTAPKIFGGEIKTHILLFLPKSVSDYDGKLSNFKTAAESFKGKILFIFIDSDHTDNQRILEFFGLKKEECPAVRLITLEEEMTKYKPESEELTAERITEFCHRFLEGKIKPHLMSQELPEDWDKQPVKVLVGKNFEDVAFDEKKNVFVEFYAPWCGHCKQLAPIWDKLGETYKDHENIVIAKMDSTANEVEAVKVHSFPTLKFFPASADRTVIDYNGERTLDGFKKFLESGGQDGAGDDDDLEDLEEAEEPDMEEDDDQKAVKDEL", "experiment": "SPR with immobilized recombinant human PDI; also inhibits in Di-E-GSSG reductase and insulin reduction assays", "format": "binding"}, "[2]": {"biological_target": "T2, ERp57 (Homo sapiens, UniProt P30101)", "T2 construct": "gene PDIA3", "T2 sequence (P30101 25-505)": "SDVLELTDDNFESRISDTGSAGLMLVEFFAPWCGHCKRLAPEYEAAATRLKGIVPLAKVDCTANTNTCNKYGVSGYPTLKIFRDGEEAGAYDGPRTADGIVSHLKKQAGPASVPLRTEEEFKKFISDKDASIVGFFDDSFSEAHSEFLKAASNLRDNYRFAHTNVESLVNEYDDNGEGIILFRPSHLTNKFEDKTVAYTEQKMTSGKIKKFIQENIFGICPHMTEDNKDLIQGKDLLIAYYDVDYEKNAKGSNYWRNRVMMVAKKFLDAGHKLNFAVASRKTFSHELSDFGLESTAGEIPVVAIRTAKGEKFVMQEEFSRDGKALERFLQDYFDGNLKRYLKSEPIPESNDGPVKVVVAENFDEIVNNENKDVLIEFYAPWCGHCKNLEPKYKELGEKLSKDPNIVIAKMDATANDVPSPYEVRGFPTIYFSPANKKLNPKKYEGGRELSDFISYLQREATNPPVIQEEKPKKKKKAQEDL", "experiment": "Di-E-GSSG fluorescence reductase assay, recombinant enzyme […]", "format": "biochemical"}, "[3]": {"biological_target": "T3, ERp72 (Homo sapiens, UniProt P13667)", "T3 construct": "gene PDIA4", "T3 sequence (P13667 21-645)": "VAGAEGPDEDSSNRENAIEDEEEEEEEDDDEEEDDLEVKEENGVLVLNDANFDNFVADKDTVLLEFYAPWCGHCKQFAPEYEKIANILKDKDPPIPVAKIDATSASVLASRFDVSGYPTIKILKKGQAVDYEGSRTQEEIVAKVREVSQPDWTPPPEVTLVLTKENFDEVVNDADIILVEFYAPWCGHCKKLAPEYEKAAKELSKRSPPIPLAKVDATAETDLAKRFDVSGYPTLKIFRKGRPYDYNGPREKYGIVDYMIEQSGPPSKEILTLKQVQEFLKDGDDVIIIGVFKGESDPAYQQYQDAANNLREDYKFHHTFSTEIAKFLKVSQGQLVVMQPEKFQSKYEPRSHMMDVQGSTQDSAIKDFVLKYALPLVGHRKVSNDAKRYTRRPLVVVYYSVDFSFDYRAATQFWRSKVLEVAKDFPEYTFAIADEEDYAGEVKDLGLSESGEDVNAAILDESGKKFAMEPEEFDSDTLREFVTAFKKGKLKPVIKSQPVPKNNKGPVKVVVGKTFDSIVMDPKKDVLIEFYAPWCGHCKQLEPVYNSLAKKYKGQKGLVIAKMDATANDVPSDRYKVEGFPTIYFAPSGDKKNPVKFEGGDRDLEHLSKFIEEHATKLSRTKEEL", "experiment": "Di-E-GSSG fluorescence reductase assay, recombinant enzyme […]", "format": "biochemical"}}, "note": "pKd: −log10 of the molar value.", "data": [{"smiles": "O=C(OC[C@H]1O[C@@H](OC(=O)c2cc(O)c(O)c(OC(=O)c3cc(O)c(O)c(O)c3)c2)[C@H](OC(=O)c2cc(O)c(O)c(OC(=O)c3cc(O)c(O)c(O)c3)c2)[C@@H](OC(=O)c2cc(O)c(O)c(OC(=O)c3cc(O)c(O)c(O)c3)c2)[C@@H]1OC(=O)c1cc(O)c(O)c(OC(=O)c2cc(O)c(O)c(O)c2)c1)c1cc(O)c(O)c(OC(=O)c2cc(O)c(O)c(O)c2)c1", "note": "[TA, Tannic acid]", "values": [{"measurement": "pKd", "setting": "[1]", "value": "> 8.77"}, {"measurement": "Di-E-GSSG fluorescence reductase assay, recombinant enzyme 20 nmol/L", "setting": "[2]", "value": "TA impaired the reductase activity of other platelet PDI family members ERP57 and ERP72"}, {"measurement": "Di-E-GSSG fluorescence reductase assay, recombinant enzyme 20 nmol/L", "setting": "[3]", "value": "TA impaired the reductase activity of other platelet PDI family members ERP57 and ERP72"}]}]}
